Assay results published in US20260137084A1, “NOVALURON MIXTURES FOR EFFICIENT INSECTICIDAL CONTROLS” (ADAMA MAKHTESHIM LTD., priority 2022, published 2026).

Columns and labels:
S. frugiperda = assay: Insecticidal efficacy (% control) and Colby synergy against S. frugiperda; type: in vivo, Spodoptera frugiperda; details: 120 hours after treatment
Method: (§1) Different concentrations of each of the active ingredients are applied to different species of insects. The percent controls are determined sometime after treatment.
(§2) Colby's method, is used to determine if synergy exists for a combination of active ingredients. According to Colby, the expected action (E) of active ingredients A+B is:
(§3) [formula] • where E=expected efficacy, A and B=the efficacy of two active ingredients A and B at a given dose.
(§4) When the percentage of control observed (O) for the combination is greater than the expected (E) percentage, there is a synergistic effect. The synergism ratio (R) is calculated as the ratio between the […].
(§5) The insecticidal compounds A (Novaluron) and B (mix partner) are formulated as equivalent compositions to eliminate the effects of differing formulation inerts on biological activity. Efficacy of the insecticidal compositions is evaluated with reference to a scale of 0% to 100% in comparison with untreated control plots. 0 means no damage and 100 means complete destruction of the harmful pests.
(§6) The experiments were conducted by applying commercially available formulations of Novaluron and other mixture partners, alone or with their tank-mixed compositions with the same weight ratio. The compositions were diluted with water or some other suitable solvents to the stated concentration of the active compounds.
(§7) Each formulation with active ingredient is diluted with water or other suitable solvent(s) to the ppm (parts per million) level and biological efficacy trials on pests are conducted.

H. armigera = assay: Insecticidal efficacy (% control) and Colby synergy against H. armigera; type: in vivo, Helicoverpa armigera; details: 120 hours after treatment
Method: as §1, §2, §3, §4, §5, §6, §7

In the case of Nicofluprole, the “Observed % control (O)” value (S. frugiperda; Rate 0.5 ppm) is reported as 20%, the “Observed % control (O)” value (S. frugiperda; Rate 1 ppm) is reported as 40% and the “Observed % control (O)” value (H. armigera; Rate 5 ppm) is reported as 30%.

In the case of `O=C(N=c1ccccn1Cc1ccc(Cl)nc1)C(F)(F)F` [Flupyrimin], the “Observed % control (O)” value (S. frugiperda; Rate 10 ppm) is reported as 10%.

In the case of `Cc1cccn2c(=O)c(-c3cc(Cl)cc(Cl)c3)c([O-])[n+](Cc3cnc(Cl)s3)c12` [Dicloromezotiaz], the “Observed % control (O)” value (S. frugiperda; Rate 1 ppm) is reported as 0%, the “Observed % control (O)” value (S. frugiperda; Rate 2.5 ppm) is reported as 40% and the “Observed % control (O)” value (S. frugiperda; Rate 5 ppm) is reported as 20%. The “Observed % control (O)” value (H. armigera; Rate 40 ppm) was 40%.

In the case of `CCN(C(=O)CCSCCC(F)(F)F)c1cn(-c2cccnc2)nc1Cl` [Tyclopyrazoflor], the “Observed % control (O)” value (S. frugiperda; Rate 5 ppm) is reported as 20% and the “Observed % control (O)” value (H. armigera; Rate 160 ppm) is reported as 20%.

In the case of `CCN1OCC(NC(=O)c2ccc(C3=NOC(c4cc(Cl)c(F)c(Cl)c4)(C(F)(F)F)C3)cc2C)C1=O` (centres unmarked) [Isocycloseram], the “Observed % control (O)” value (S. frugiperda; Rate 5 ppm) is reported as 20%, the “Observed % control (O)” value (S. frugiperda; Rate 10 ppm) is reported as 20% and the “Observed % control (O)” value (H. armigera; Rate 10 ppm) is reported as 20%. The “Observed % control (O)” value (H. armigera; Rate 20 ppm) was 50%.

In the case of `O=C(NC(=O)c1c(F)cccc1F)Nc1ccc(OC(F)(F)C(F)OC(F)(F)F)c(Cl)c1` (single isomer, unassigned; (+)) [Novaluron, (+)-1-[3-chloro-4-(1,1,2-trifluoro-2-trifluoromethoxyethoxy)phenyl]-3-(2,6-difluorobenzoyl) urea], the “Observed % control (O)” value (S. frugiperda; Rate 0.01 ppm) is reported as 16%, the “Observed % control (O)” value (H. armigera; Rate 0.1 ppm) is reported as 20% and the “Observed % control (O)” value (H. armigera; Rate 0.2 ppm) is reported as 20%.
